According to paper PMC4515243, “Phase 1 pharmacokinetic study of the oral pan-AKT inhibitor MK-2206 in Japanese patients with advanced solid tumors” (Cancer Chemotherapy and Pharmacology, 2015):
Values joined by “and” are separate entries in the source; they are usually repeats but may differ in a detail not shown here. Equal entries are not always repeated.

System: Japanese patients with advanced solid tumors
Experiment: phase 1 safety and tolerability (DLT, adverse events) in Japanese patients;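 also: toxicities graded by NCI CTCAE version 3.0, treatment given until disease progression or unacceptable toxicity, three to nine patients enrolled per dose level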
[1] = all cohorts (n = 24), all treatment cycles

NC1(c2ccc(-c3nc4ccn5c(=O)[nH]nc5c4cc3-c3ccccc3)cc2)CCC1 [MK-2206]
Eosinophilia, drug-related adverse event, patients (135 mg QW (n = 3), Grades 3–5): 0
Erythema multiforme, drug-related adverse event, patients (135 mg QW (n = 3), Grades 3–5): 0
Fatigue, drug-related adverse event, patients (135 mg QW (n = 3), Grades 3–5): 0
HbA1C increased, drug-related adverse event, patients (135 mg QW (n = 3), Grades 3–5): 0
Hyperglycemia, drug-related adverse event, patients (135 mg QW (n = 3), Grades 3–5): 0
Hypernatremia, drug-related adverse event, patients (135 mg QW (n = 3), Grades 3–5): 0
Hypoalbuminemia, drug-related adverse event, patients (135 mg QW (n = 3), Grades 3–5): 0
Hypokalemia, drug-related adverse event, patients (135 mg QW (n = 3), Grades 3–5): 0
Insulin c-peptide increased, drug-related adverse event, patients (135 mg QW (n = 3), Grades 3–5): 0
Leukopenia, drug-related adverse event, patients (135 mg QW (n = 3), Grades 3–5): 0
Localized edema, drug-related adverse event, patients (135 mg QW (n = 3), Grades 3–5): 0
Lymphopenia, drug-related adverse event, patients (135 mg QW (n = 3), Grades 3–5): 0
Nausea, drug-related adverse event, patients (135 mg QW (n = 3), Grades 3–5): 0
Neutropenia, drug-related adverse event, patients (135 mg QW (n = 3), Grades 3–5): 0
Palmar-plantar erythrodysaesthesia syndrome, drug-related adverse event, patients (135 mg QW (n = 3), Grades 3–5): 0
Pruritus, drug-related adverse event, patients (135 mg QW (n = 3), Grades 3–5): 0
Pyrexia, drug-related adverse event, patients (135 mg QW (n = 3), Grades 3–5): 0
Rash, drug-related adverse event, patients (135 mg QW (n = 3), Grades 3–5): 0
Stomatitis, drug-related adverse event, patients (135 mg QW (n = 3), Grades 3–5): 0
Vomiting, drug-related adverse event, patients (135 mg QW (n = 3), Grades 3–5): 0
patients who discontinued treatment because of grade 2 rash (200 mg QW): One patient
patients with DLTs during Cycle 1 (200 mg QW): Three of the nine
ALT increased, drug-related adverse event, patients (200 mg QW (n = 9), All grades): 3
Blood creatinine increased, drug-related adverse event, patients (200 mg QW (n = 9), All grades): 6
Decreased appetite, drug-related adverse event, patients (200 mg QW (n = 9), All grades): 4
Diarrhea, drug-related adverse event, patients (200 mg QW (n = 9), All grades): 3
Dry skin, drug-related adverse event, patients (200 mg QW (n = 9), All grades): 2
Eosinophil count increased, drug-related adverse event, patients (200 mg QW (n = 9), All grades): 5
Eosinophilia, drug-related adverse event, patients (200 mg QW (n = 9), All grades): 4
Erythema multiforme, drug-related adverse event, patients (200 mg QW (n = 9), All grades): 4
Fatigue, drug-related adverse event, patients (200 mg QW (n = 9), All grades): 4
HbA1C increased, drug-related adverse event, patients (200 mg QW (n = 9), All grades): 4
Hyperglycemia, drug-related adverse event, patients (200 mg QW (n = 9), All grades): 6
Hypernatremia, drug-related adverse event, patients (200 mg QW (n = 9), All grades): 4
Hypoalbuminemia, drug-related adverse event, patients (200 mg QW (n = 9), All grades): 2
Hypokalemia, drug-related adverse event, patients (200 mg QW (n = 9), All grades): 2
Insulin c-peptide increased, drug-related adverse event, patients (200 mg QW (n = 9), All grades): 5
Leukopenia, drug-related adverse event, patients (200 mg QW (n = 9), All grades): 8
Localized edema, drug-related adverse event, patients (200 mg QW (n = 9), All grades): 4
Lymphopenia, drug-related adverse event, patients (200 mg QW (n = 9), All grades): 2
Nausea, drug-related adverse event, patients (200 mg QW (n = 9), All grades): 3
Neutropenia, drug-related adverse event, patients (200 mg QW (n = 9), All grades): 4
Palmar-plantar erythrodysaesthesia syndrome, drug-related adverse event, patients (200 mg QW (n = 9), All grades): 2
Pruritus, drug-related adverse event, patients (200 mg QW (n = 9), All grades): 5
Pyrexia, drug-related adverse event, patients (200 mg QW (n = 9), All grades): 5
Rash, drug-related adverse event, patients (200 mg QW (n = 9), All grades): 6
Stomatitis, drug-related adverse event, patients (200 mg QW (n = 9), All grades): 6
Vomiting, drug-related adverse event, patients (200 mg QW (n = 9), All grades): 3
ALT increased, drug-related adverse event, patients (200 mg QW (n = 9), Grades 3–5): 1
Blood creatinine increased, drug-related adverse event, patients (200 mg QW (n = 9), Grades 3–5): 0
Decreased appetite, drug-related adverse event, patients (200 mg QW (n = 9), Grades 3–5): 1
Diarrhea, drug-related adverse event, patients (200 mg QW (n = 9), Grades 3–5): 0
Dry skin, drug-related adverse event, patients (200 mg QW (n = 9), Grades 3–5): 0
Eosinophil count increased, drug-related adverse event, patients (200 mg QW (n = 9), Grades 3–5): 0
Eosinophilia, drug-related adverse event, patients (200 mg QW (n = 9), Grades 3–5): 0
Erythema multiforme, drug-related adverse event, patients (200 mg QW (n = 9), Grades 3–5): 2
Fatigue, drug-related adverse event, patients (200 mg QW (n = 9), Grades 3–5): 0
HbA1C increased, drug-related adverse event, patients (200 mg QW (n = 9), Grades 3–5): 0
Hyperglycemia, drug-related adverse event, patients (200 mg QW (n = 9), Grades 3–5): 2
Hypernatremia, drug-related adverse event, patients (200 mg QW (n = 9), Grades 3–5): 1
Hypoalbuminemia, drug-related adverse event, patients (200 mg QW (n = 9), Grades 3–5): 0
Hypokalemia, drug-related adverse event, patients (200 mg QW (n = 9), Grades 3–5): 0
Insulin c-peptide increased, drug-related adverse event, patients (200 mg QW (n = 9), Grades 3–5): 0
Leukopenia, drug-related adverse event, patients (200 mg QW (n = 9), Grades 3–5): 1
Localized edema, drug-related adverse event, patients (200 mg QW (n = 9), Grades 3–5): 0
Lymphopenia, drug-related adverse event, patients (200 mg QW (n = 9), Grades 3–5): 2
Nausea, drug-related adverse event, patients (200 mg QW (n = 9), Grades 3–5): 1
Neutropenia, drug-related adverse event, patients (200 mg QW (n = 9), Grades 3–5): 0
Palmar-plantar erythrodysaesthesia syndrome, drug-related adverse event, patients (200 mg QW (n = 9), Grades 3–5): 0
Pruritus, drug-related adverse event, patients (200 mg QW (n = 9), Grades 3–5): 0
Pyrexia, drug-related adverse event, patients (200 mg QW (n = 9), Grades 3–5): 0
Rash, drug-related adverse event, patients (200 mg QW (n = 9), Grades 3–5): 0
Stomatitis, drug-related adverse event, patients (200 mg QW (n = 9), Grades 3–5): 0
Vomiting, drug-related adverse event, patients (200 mg QW (n = 9), Grades 3–5): 0
time until onset of DLTs (200 mg QW, grade 3 facial edema and grade 3 erythema multiforme): 10 days
time until onset of DLTs (200 mg QW, grade 3 hyperglycemia and grade 3 erythema multiforme): 11 days
time until onset of DLT (200 mg QW, grade 4 hyponatremia): 10 days
ALT increased, drug-related adverse event, patients (Total (n = 24), All grades): 4
Blood creatinine increased, drug-related adverse event, patients (Total (n = 24), All grades): 8/24 and 8
Decreased appetite, drug-related adverse event, patients (Total (n = 24), All grades): 7
Diarrhea, drug-related adverse event, patients (Total (n = 24), All grades): 10/24 and 10
Dry skin, drug-related adverse event, patients (Total (n = 24), All grades): 5
Eosinophil count increased, drug-related adverse event, patients (Total (n = 24), All grades): 7
Eosinophilia, drug-related adverse event, patients (Total (n = 24), All grades): 13/24 and 13
Erythema multiforme, drug-related adverse event, patients (Total (n = 24), All grades): 4
Fatigue, drug-related adverse event, patients (Total (n = 24), All grades): 10
HbA1C increased, drug-related adverse event, patients (Total (n = 24), All grades): 7
Hyperglycemia, drug-related adverse event, patients (Total (n = 24), All grades): 12/24 and 12
Hypernatremia, drug-related adverse event, patients (Total (n = 24), All grades): 5
Hypoalbuminemia, drug-related adverse event, patients (Total (n = 24), All grades): 4
Hypokalemia, drug-related adverse event, patients (Total (n = 24), All grades): 4
Insulin c-peptide increased, drug-related adverse event, patients (Total (n = 24), All grades): 16/24 and 16
Leukopenia, drug-related adverse event, patients (Total (n = 24), All grades): 12/24 and 12
Localized edema, drug-related adverse event, patients (Total (n = 24), All grades): 4
Lymphopenia, drug-related adverse event, patients (Total (n = 24), All grades): 9/24 and 9
Nausea, drug-related adverse event, patients (Total (n = 24), All grades): 5
Neutropenia, drug-related adverse event, patients (Total (n = 24), All grades): 9/24 and 9
Palmar-plantar erythrodysaesthesia syndrome, drug-related adverse event, patients (Total (n = 24), All grades): 4
Pruritus, drug-related adverse event, patients (Total (n = 24), All grades): 10
Pyrexia, drug-related adverse event, patients (Total (n = 24), All grades): 13/24 and 13
Rash, drug-related adverse event, patients (Total (n = 24), All grades): 20/24 and 20
Stomatitis, drug-related adverse event, patients (Total (n = 24), All grades): 14/24 and 14
Vomiting, drug-related adverse event, patients (Total (n = 24), All grades): 4
ALT increased, drug-related adverse event, patients (Total (n = 24), Grades 3–5): 1
Blood creatinine increased, drug-related adverse event, patients (Total (n = 24), Grades 3–5): 0
Decreased appetite, drug-related adverse event, patients (Total (n = 24), Grades 3–5): 1
Diarrhea, drug-related adverse event, patients (Total (n = 24), Grades 3–5): 1
Dry skin, drug-related adverse event, patients (Total (n = 24), Grades 3–5): 0
Eosinophil count increased, drug-related adverse event, patients (Total (n = 24), Grades 3–5): 0
Eosinophilia, drug-related adverse event, patients (Total (n = 24), Grades 3–5): 0
Erythema multiforme, drug-related adverse event, patients (Total (n = 24), Grades 3–5): 2
Fatigue, drug-related adverse event, patients (Total (n = 24), Grades 3–5): 0
HbA1C increased, drug-related adverse event, patients (Total (n = 24), Grades 3–5): 0
Hyperglycemia, drug-related adverse event, patients (Total (n = 24), Grades 3–5): 2
Hypernatremia, drug-related adverse event, patients (Total (n = 24), Grades 3–5): 1
Hypoalbuminemia, drug-related adverse event, patients (Total (n = 24), Grades 3–5): 0
Hypokalemia, drug-related adverse event, patients (Total (n = 24), Grades 3–5): 0
Insulin c-peptide increased, drug-related adverse event, patients (Total (n = 24), Grades 3–5): 0
Leukopenia, drug-related adverse event, patients (Total (n = 24), Grades 3–5): 1
Localized edema, drug-related adverse event, patients (Total (n = 24), Grades 3–5): 0
Lymphopenia, drug-related adverse event, patients (Total (n = 24), Grades 3–5): 6
Nausea, drug-related adverse event, patients (Total (n = 24), Grades 3–5): 1
Neutropenia, drug-related adverse event, patients (Total (n = 24), Grades 3–5): 1
Palmar-plantar erythrodysaesthesia syndrome, drug-related adverse event, patients (Total (n = 24), Grades 3–5): 0
Pruritus, drug-related adverse event, patients (Total (n = 24), Grades 3–5): 0
Pyrexia, drug-related adverse event, patients (Total (n = 24), Grades 3–5): 0
Rash, drug-related adverse event, patients (Total (n = 24), Grades 3–5): 1
Stomatitis, drug-related adverse event, patients (Total (n = 24), Grades 3–5): 0
Vomiting, drug-related adverse event, patients (Total (n = 24), Grades 3–5): 0
treatment-related deaths (all cohorts): No treatment-related deaths
diarrhea related to MK-2206, percent of patients [1]: 41.7%
elevated blood creatinine level related to MK-2206, percent of patients [1]: 33.3%
elevated insulin c-peptide level related to MK-2206, percent of patients [1]: 66.7%
eosinophilia related to MK-2206, percent of patients [1]: 54.2%
hyperglycemia related to MK-2206, percent of patients [1]: 50.0%
leukopenia related to MK-2206, percent of patients [1]: 50.0%
lymphopenia related to MK-2206, percent of patients [1]: 37.5%
neutropenia related to MK-2206, percent of patients [1]: 37.5%
pyrexia related to MK-2206, percent of patients [1]: 54.2%
rash related to MK-2206, percent of patients [1]: 83.3%
stomatitis related to MK-2206, percent of patients [1]: 58.3%
